One experiment relates to T. rubrum. As to the kind of experiment: MIC testing, modified CLSI M38-A2 for dermatophytes (Example 2). In kind it is cell-based, Trichophyton rubrum. Particulars: for MIC50: lowest concentration to inhibit 50% of the strains tested, n = 20.
For a further experiment, the system named is T. tonsurans. The description is as above. The conditions noted are these: n = 5 strains; for MIC50 / MIC90: Trichophyton tonsurans. In kind it is cell-based. The method, then:
(§1) MIC testing was performed according to the modification of the CLSI M38-A2 standard for dermatophytes developed at the Center (CLSI. Reference Method for Broth Dilution Antifungal Susceptibility Testing of Filamentous Fungi; Approved Standard-Second Edition. CLSI document M38-A2 [ISBN 1-56238-668-9]. CLSI, 940 West Valley Road, Suite 1400, Wayne, Pa. 19087-1898 USA, 2008; Ghannoum M A, et al. Intra- and Interlaboratory Study of a Method for Testing the Antifungal Susceptibilities of Dermatophytes. 2004 J Clin Microbiol 42:(7): 2977-2979). Compound 8 and fluconazole were tested in combination using a checkerboard microdilution method. The interaction between Compound 8 and fluconazole was determined by FIC Index, or Fractional Inhibitory Concentration Index, which assigns a numerical value to the interaction of the two antifungals.

In the next experiment the test system is T. mentagrophytes. The description is as above. The experiment is classed as cell-based. The conditions noted are these: n = 5 strains; for MIC50 / MIC90: Trichophyton mentagrophytes. The method, then:
as §1

A further experiment relates to E. floccosum. As to the kind of experiment: Checkerboard combination testing of compound 8 with antifungals, FIC (Example 1). In kind it is cell-based, Epidermophyton floccosum. Particulars: in combination with Cpd 8, one value per clinical isolate (Strain # 1-6). The method, then:
(§2) This example describes the in vitro activity of combinations of compounds according to the present invention and antifungal agents against a collection of dermatophytic fungal pathogens. Antifungal susceptibility testing was adapted from the CLSI M38-A broth microdilution method for dermatophytes (NCCLS-M38-A2 2008). Combination testing was performed by checkerboard method (with compound 8 in combination with fluconazole, itraconazole or terbinafine). A total of 30 isolates of 5 different fungal species were tested in the combination test: 6 isolates each of Trichophyton tonsurans, Trichophyton rubrum, Epidermophyton floccosum, Trichophyton mentagrophytes and Microsporum canis. Clinical isolates were obtained by the Laboratory of Dr. M. Ghannoum at Case Western University.
Synergy was assessed using the fractional inhibitory concentration (FIC), an interaction coefficient, with the following definitions:
The fold reduction of the itraconazole minimum inhibitory concentration (MIC) was also evaluated.

Experiment [1] has as its system panel of clinical isolates of 5 common dermatophytic fungi. The experiment in a line: Checkerboard combination testing, whole panel (Example 1). In kind it is cell-based. The conditions noted are these: terbinafine alone; reason why synergy could not be determined. How it is done: as §2
Synergy was assessed using the fractional inhibitory concentration (FIC), an interaction coefficient, with the following definitions: […]

Setting [2] is: Trichophyton rubrum, read-out: MIC50.
[3] abbreviates: Trichophyton rubrum, n = 20 strains.

≈ marks a conversion by molar mass, not a printed value. Entries after “also recorded” stand apart in the source; their conditions may differ. Where two headings read alike, the source gives them in different places.

On to `OC(Cn1cncn1)(Cn1cncn1)c1ccc(F)cc1F` [Fluconazole, fluconazole], for which the MIC50 (as a rule, the lowest concentration that inhibits either 50% of growth or 50% of the strains tested, depending on the study) in the experiment with T. rubrum (setting [2]) came out at 1 µg/mL (≈ 3.27 µM); with T. rubrum, 1 µg/mL (≈ 3.27 µM); in the experiment with T. tonsurans, 2 µg/mL; in the experiment on T. mentagrophytes it was 16 µg/mL. For the same compound, the MIC90 (usually an inhibitory concentration at the 90% level, which refers to growth in some studies and to a panel of isolates in others) with T. rubrum (setting [3]) came out at 1 µg/mL (≈ 3.27 µM); in the experiment on T. tonsurans, 4 µg/mL; in the experiment on T. mentagrophytes, 16 µg/mL. For the same compound, the “MIC Range” value against T. rubrum (n = 20 strains) lay in the range of 0.25 to 4.0 µg/mL; in the experiment with T. tonsurans, 1.0 to 4.0 µg/mL; in the experiment with T. mentagrophytes, 2.0 to 16.0 µg/mL.

As for `CCC(C)n1ncn(-c2ccc(N3CCN(c4ccc(OCC5COC(Cn6cncn6)(c6ccc(Cl)cc6Cl)O5)cc4)CC3)cc2)c1=O` (stereo not drawn) [Itraconazole, itraconazole, reference compound], the MIC (in general, the lowest concentration found to suppress growth) with E. floccosum (Epidermophyton floccosum, read-out: Itraconazole MIC with Cpd 8) is 0.015 µg/mL. Moreover, the “Itraconazole MIC with Cpd 8” value in the experiment on E. floccosum stood at 0.008 µg/mL.

Regarding `CN(C/C=C/C#CC(C)(C)C)Cc1cccc2ccccc12` [Terbinafine, terbinafine], the “Potency (MIC) of terbinafine, in words” value in experiment [1] is reported as “extremely low MIC; also recorded: † = synergy could not be determined because of the high potency (extremely low MIC) of terbinafine”. Moreover, the MIC50 with T. rubrum (setting [2]) was determined as 0.016 µg/mL (≈ 0.0549 µM); in the experiment with T. tonsurans, 0.002 µg/mL; in the experiment with T. mentagrophytes, 0.008 µg/mL. The values for the MIC90 in the experiment with T. rubrum (setting [3]), with T. tonsurans and in the experiment on T. mentagrophytes were 8 µg/mL (≈ 27.5 µM), 0.002 µg/mL and 0.016 µg/mL, respectively. The “MIC Range” value in the experiment with T. tonsurans was in the range of 0.001 to 0.016 µg/mL; in the experiment on T. mentagrophytes it was 0.004 to 0.016 µg/mL.

For the origin of these results see patent US20120046331A1, “Antifungal Agents and Uses Thereof” (priority 2010, published 2012).
